Experimental findings from US20130071415A1, “Heterocyclic Compounds as Janus Kinase Inhibitors” (BioCryst Pharmaceuticals, Inc., priority 2010, published 2013) are described below.

Counter-ions that a name gives are not always drawn.

Take `c1cc2c(-c3cn[nH]c3)ncnn2c1` (as salt: HCl) [Compound 13c, 4-(1H-Pyrazol-4-yl)pyrrolo[1,2-f][1,2,4]triazine]: the melting point was 245.8 °C.
